Assay [1] has as its target T1, Glycogen synthase kinase-3 beta (Homo sapiens, UniProt P49841). As to the kind of experiment: Inhibition of His-tagged full length human recombinant GSK3beta using [YRRAAVPPSPSLSRHSSPHQ-(pS)EDEEE] substrate and pre-incubarted for 20 mins before [gamma-33P]ATP addition and measured after 2 hrs by radiometric kinase assay.
Target sequence in this assay (P49841 whole entry): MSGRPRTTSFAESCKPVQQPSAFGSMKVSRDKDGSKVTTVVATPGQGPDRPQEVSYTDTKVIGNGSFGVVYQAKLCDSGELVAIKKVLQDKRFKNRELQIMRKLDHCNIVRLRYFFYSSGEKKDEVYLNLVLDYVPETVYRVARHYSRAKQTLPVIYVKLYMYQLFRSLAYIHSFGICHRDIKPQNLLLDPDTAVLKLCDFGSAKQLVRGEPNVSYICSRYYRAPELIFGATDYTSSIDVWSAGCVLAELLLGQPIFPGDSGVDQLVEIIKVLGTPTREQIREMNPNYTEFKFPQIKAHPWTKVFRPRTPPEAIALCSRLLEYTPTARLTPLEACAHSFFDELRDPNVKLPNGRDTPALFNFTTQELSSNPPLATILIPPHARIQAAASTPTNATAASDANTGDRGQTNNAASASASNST
Assay [2] deals with T1, Glycogen synthase kinase-3 beta. Briefly: Inhibition of GSK3beta (unknown origin) assessed as remaining enzyme activity at 1 uM.
Target sequence in this assay (P49841 whole entry, looked up): as the sequence (P49841 whole entry) above
The target of assay [3] is Cyclin-dependent kinase 2 (Homo sapiens) (UniProt P24941). Briefly: Inhibition of CDK2 (unknown origin) assessed as remaining enzyme activity at 1 uM.
Assay [4] relates to MDA-MB-231. Briefly: Antiproliferative activity against human MDA231 cells by MTT assay. It counts as functional, cell-based. A general note: Tetrazolium assays rely on reduction of a dye to a coloured formazan, in cell work by metabolically active cells.
In assay [5] the test system is MCF7. Briefly: Antiproliferative activity against human MCF7 cells by MTT assay. It counts as functional, cell-based.
The subject of assay [6] is SK-BR-3. Briefly: Antiproliferative activity against human SKBR3 cells by MTT assay. It counts as functional, cell-based.
Assay [7] concerns the target Aurora kinase B (Homo sapiens) (UniProt Q96GD4). Briefly: Inhibition of Aurora kinase B (unknown origin) assessed as remaining enzyme activity at 1 uM.

pIC50: −log10 of the molar value.

Sequence of Aurora kinase B (Homo sapiens) (Q96GD4 whole entry): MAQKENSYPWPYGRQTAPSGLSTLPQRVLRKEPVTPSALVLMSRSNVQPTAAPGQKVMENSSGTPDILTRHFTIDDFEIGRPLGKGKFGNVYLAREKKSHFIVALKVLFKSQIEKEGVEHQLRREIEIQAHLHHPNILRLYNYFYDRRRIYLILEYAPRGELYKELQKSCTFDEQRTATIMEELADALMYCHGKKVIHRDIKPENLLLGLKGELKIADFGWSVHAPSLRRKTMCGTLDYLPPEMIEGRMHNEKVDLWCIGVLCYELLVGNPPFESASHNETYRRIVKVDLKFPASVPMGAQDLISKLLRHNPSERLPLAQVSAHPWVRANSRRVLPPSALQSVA

In general, pIC50 refers to the negative decadic logarithm of the IC50, by convention in mol/L. Take `O=C(/C=C/c1cnc2[nH]cc(-c3ccccc3)c2c1)NCCc1c[nH]c2ccccc12`: the pIC50 in assay [1] is 6.45.

With `NC(=O)c1ccc(-c2c[nH]c3ncc(/C=C/C(=O)NCc4ccncc4)cc23)cc1`, the pIC50 in assay [1] is 8.35.

Take `CC(=O)c1ccc(-c2c[nH]c3ncc(/C=C/C(=O)NCc4ccncc4)cc23)cc1`: the pIC50 in assay [1] was 8.85.

For the compound `COc1ccc(-c2c[nH]c3ncc(/C=C/C(=O)NCc4ccncc4)cc23)cc1`, the pIC50 in assay [1] was 9.29; in assay [4], < 5.00; in assay [5] it was < 5.00; in assay [6], < 5.00. In addition, the figures for the Activity in assay [2] and in assay [3] were 1.2% and 97%, respectively.

For `O=C(CNC(=O)c1cnc2[nH]cc(-c3ccncc3)c2c1)NCCc1c[nH]c2ccccc12`, the pIC50 in assay [1] was 6.00.

Take `O=C(/C=C/c1cnc2[nH]cc(-c3ccc(F)cc3)c2c1)NCc1ccncc1`: in assay [1], the pIC50 is 7.64.

In the case of `O=C(CCc1cnc2[nH]cc(-c3ccccc3)c2c1)NCCc1c[nH]c2ccccc12`, the pIC50 in assay [1] is 5.99.

In the case of `O=C(/C=C/c1cnc2[nH]cc(-c3ccccc3)c2c1)NCc1ccc2c(c1)CCO2`, the pIC50 in assay [1] was 6.99.

Turning to `O=C(/C=C/c1cnc2[nH]cc(-c3cccnc3)c2c1)NCc1ccncc1`, the pIC50 in assay [1] is 7.78.

Turning to `O=C(/C=C/c1cnc2[nH]cc(-c3ccncc3)c2c1)NCc1ccncc1`, the pIC50 in assay [1] is 8.56.

With `O=C(/C=C/c1cnc2[nH]cc(-c3ccccc3)c2c1)NCCc1c[nH]c2ncccc12`, in assay [1], the pIC50 is 6.89.

As to `CC(=O)c1ccc(-c2c[nH]c3ncc(/C=C/C(=O)NCCc4ccccn4)cc23)cc1`, the pIC50 is 8.86 in assay [1], < 5.00 in assay [4], < 5.00 in assay [5] and < 5.00 in assay [6]. Moreover, the Activity in assay [7] was determined as 23%; in assay [2], 3.4%; in assay [3], 85%.

Consider `O=C(CNC(=O)c1ccc2noc(-c3ccccc3)c2c1)NCCc1c[nH]c2ccccc12`, for which the pIC50 in assay [1] is < 4.30.

For `O=C(/C=C/c1cnc2[nH]cc(-c3ccccc3)c2c1)NCc1ccccn1`, the pIC50 in assay [1] is 6.78.

Turning to `O=C(/C=C/c1cnc2[nH]cc(-c3ccccc3)c2c1)NCc1ccco1`, the pIC50 in assay [1] was 7.11.

Take `O=C(/C=C/c1cnc2[nH]cc(-c3ccccc3)c2c1)NCCc1ccncc1`: the pIC50 in assay [1] was 7.36.

Take `O=C(C/C=C/c1cnc2[nH]cc(-c3ccccc3)c2c1)NCCc1ccccc1`: in assay [1], the pIC50 is < 4.30.

`O=C(CNC(=O)c1ccc2[nH]cc(-c3ccncc3)c2c1)NCCc1c[nH]c2ccccc12`: the pIC50 in assay [1] is 4.47.

Take `N#Cc1ccc(-c2c[nH]c3ncc(/C=C/C(=O)NCc4ccncc4)cc23)cc1`: in assay [1], the pIC50 is 7.20.

For `O=C(CNC(=O)c1cnc2[nH]cc(-c3ccccc3)c2c1)NCCc1c[nH]c2ccccc12`, the pIC50 in assay [1] was 5.84.

Turning to `O=C(/C=C/c1cnc2[nH]cc(-c3ccccc3)c2c1)NCc1ccncc1`, the pIC50 in assay [1] was 8.44.

On to `O=C(C/C=C/c1cnc2[nH]cc(-c3ccccc3)c2c1)NCCc1c[nH]c2ccccc12`, for which the pIC50 in assay [1] was 5.42.

For the compound `O=C(/C=C/c1cnc2[nH]cc(-c3ccccc3)c2c1)NCCN1CCOCC1`, in assay [1], the pIC50 was 7.34.

As to `O=C(/C=C/c1cnc2[nH]cc(-c3ccccc3)c2c1)NCCc1ccccc1`, the pIC50 in assay [1] is 6.61.

As for `O=C(/C=C/c1cnc2[nH]cc(-c3ccccc3)c2c1)NCc1ccc2[nH]ccc2c1`, the pIC50 in assay [1] was 6.34.

Take `CS(=O)(=O)c1ccc(-c2c[nH]c3ncc(/C=C/C(=O)NCc4ccncc4)cc23)cc1`: in assay [1], the pIC50 is 6.66.

In the case of `O=C(/C=C/c1cnc2[nH]cc(-c3ccccc3)c2c1)NCc1cccnc1`, the pIC50 in assay [1] was 7.19.

Regarding `O=C(/C=C/c1cnc2[nH]cc(-c3ccccc3)c2c1)NCc1nc2ccccc2[nH]1`, the pIC50 in assay [1] is 7.21.

These data come from ChEMBL document CHEMBL4428132, “Application of Fragment-Based de Novo Design to the Discovery of Selective Picomolar Inhibitors of Glycogen Synthase Kinase-3 Beta” (J Med Chem, 2016).
